Laboratory results reported in patent US20100092480A1, “MODULATORS OF PROTEIN PHOSPHATASE 2A” (priority 2006, published 2010).
Starred links: 1 amine or outer side, 2 acyl side, 3 side chain; linkers in the order of their positions; H or OH if unused. Positions of bridges follow the written chain, without caps; N, C: chain ends. Non-standard residues stand in square brackets, D forms with d. Residues, ends and D or L forms follow the SMILES beside them. Adda = CO[C@@H](Cc1ccccc1)[C@@H](C)/C=C(C)/C=C/[C@H](N[*:1])[C@H](C)C(=O)[*:2]; dAsp(3S-Me) = C[C@H](C(=O)[*:3])[C@@H](N[*:1])C(=O)[*:2]; d(γGlu) = O=C(O)[C@@H](CCC(=O)[*:2])N[*:1]; NMeDha = C=C(NC)C(=O)O

Key:
PP2A = PP2A (Homo sapiens, UniProt P67775); conditions: cited from earlier work
Chain of PP2A (P67775 whole entry): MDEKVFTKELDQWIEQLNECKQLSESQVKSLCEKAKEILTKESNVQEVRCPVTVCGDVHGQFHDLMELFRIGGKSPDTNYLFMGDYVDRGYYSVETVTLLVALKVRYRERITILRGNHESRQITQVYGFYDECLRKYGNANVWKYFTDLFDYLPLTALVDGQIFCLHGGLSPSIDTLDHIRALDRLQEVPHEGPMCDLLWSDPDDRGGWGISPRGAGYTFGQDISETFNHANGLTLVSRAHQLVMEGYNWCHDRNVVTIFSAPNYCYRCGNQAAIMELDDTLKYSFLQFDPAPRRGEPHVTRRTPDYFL

PP2A core = PP2A core (Homo sapiens, UniProt P67775); assay type: biochemical; conditions: stoichiometric amounts of inhibitor
Chain of PP2A core (P67775 whole entry): as above
Chain of PP2A core (P30153 whole entry, further chain): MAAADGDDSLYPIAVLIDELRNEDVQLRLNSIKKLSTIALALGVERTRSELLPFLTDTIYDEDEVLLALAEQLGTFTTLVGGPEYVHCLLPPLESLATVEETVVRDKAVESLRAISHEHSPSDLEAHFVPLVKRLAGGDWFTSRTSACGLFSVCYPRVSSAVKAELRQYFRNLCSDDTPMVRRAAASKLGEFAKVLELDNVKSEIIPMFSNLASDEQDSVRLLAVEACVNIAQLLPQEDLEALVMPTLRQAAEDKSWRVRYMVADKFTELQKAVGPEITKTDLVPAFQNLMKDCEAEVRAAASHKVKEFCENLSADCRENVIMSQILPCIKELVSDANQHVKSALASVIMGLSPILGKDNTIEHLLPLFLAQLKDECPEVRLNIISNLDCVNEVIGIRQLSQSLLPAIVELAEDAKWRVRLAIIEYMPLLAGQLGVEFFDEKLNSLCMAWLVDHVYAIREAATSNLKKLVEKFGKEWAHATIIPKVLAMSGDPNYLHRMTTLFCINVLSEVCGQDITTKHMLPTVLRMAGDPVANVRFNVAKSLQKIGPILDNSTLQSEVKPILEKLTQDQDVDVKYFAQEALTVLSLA

SMILES	inhibition of the activity of PP2A (PP2A)	inhibition of phosphatase activity of the assembled, purified PP2A core (PP2A core)	IC50 (PP2A; PP2A, read-out: inhibitory constant (IC50)) [nM]
C=C1C(=O)N[C@H](C)C(=O)N[C@@H](CC(C)C)C(=O)N[C@@H](C(=O)O)[C@H](C)C(=O)N[C@@H](CCCNC(=N)N)C(=O)N[C@@H](/C=C/C(C)=C/[C@H](C)[C@H](Cc2ccccc2)OC)[C@H](C)C(=O)N[C@@H](C(=O)O)CCC(=O)N1C [MCLR, microcystin-LR] (R[Adda][d(γGlu)][NMeDha][dA]L[dAsp(3S-Me)]-OH; lactam N-7)	potently inhibit	–	–
C=C1[C@@H](O)[C@@H]2O[C@]3(CC[C@H](/C=C/[C@@H](C)[C@@H]4CC(C)=C[C@@]5(O[C@H](C[C@@](C)(O)C(=O)O)CC[C@H]5O)O4)O3)CC[C@H]2O[C@@H]1[C@@H](O)C[C@H](C)[C@H]1O[C@@]2(CCCCO2)CC[C@H]1C [OA, okadaic acid]	–	efficiently inhibited	~0.1
